# Data as given in PubChem BioAssay AID2060491 (Molecular Pharmacology Branch, DTP, NCI, 2025).
# Tested on: 857933-349-R-J2-PDC complex spheroids, viability
# Assay: Anticancer human tumor 857933-349-R-J2-PDC patient-derived colon adenocarcinoma cell line growth inhibition [GQUAD]
# Conditions: for IC50: curve of first compound; for viability, T/C: stronger effect = lower value
# In short: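 Tumor cells were grown as complex spheroids with HUVEC endothelial cells and mesenchymal stem cells as stroma. G-quadruplex stabilizers were combined with targeted agents over half-log dilutions from near the clinical Cmax, or from 10 microM.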
# [1] = second compound 0.0316 µM, first compound 0.0316 µM
# [2] = second compound 0.0316 µM, first compound 0.1 µM
# [3] = second compound 0.0316 µM, first compound 0.316 µM
# [4] = second compound 0.0316 µM, first compound 1 µM
# [5] = second compound 0.0316 µM, first compound 3.16 µM
# [6] = second compound 0.0316 µM, first compound 10 µM
# [7] = second compound 0.1 µM, first compound 0.0316 µM
# [8] = second compound 0.1 µM, first compound 0.1 µM
# [9] = second compound 0.1 µM, first compound 0.316 µM
# [10] = second compound 0.1 µM, first compound 1 µM
# [11] = second compound 0.1 µM, first compound 3.16 µM
# [12] = second compound 0.1 µM, first compound 10 µM
# [13] = second compound 0.316 µM, first compound 0.0316 µM
# [14] = second compound 0.316 µM, first compound 0.1 µM
# [15] = second compound 0.316 µM, first compound 0.316 µM
# [16] = second compound 0.316 µM, first compound 1 µM
# [17] = second compound 0.316 µM, first compound 3.16 µM
# [18] = second compound 0.316 µM, first compound 10 µM
# [19] = second compound 1 µM, first compound 0.0316 µM
# [20] = second compound 1 µM, first compound 0.1 µM
# [21] = second compound 1 µM, first compound 0.316 µM
# [22] = second compound 1 µM, first compound 1 µM
# [23] = second compound 1 µM, first compound 3.16 µM
# [24] = second compound 1 µM, first compound 10 µM
# [25] = second compound 3.16 µM, first compound 0.0316 µM
# [26] = second compound 3.16 µM, first compound 0.1 µM
# [27] = second compound 3.16 µM, first compound 0.316 µM
# [28] = second compound 3.16 µM, first compound 1 µM
# [29] = second compound 3.16 µM, first compound 3.16 µM
# [30] = second compound 3.16 µM, first compound 10 µM
# [31] = second compound 10 µM, first compound 0.0316 µM
# [32] = second compound 10 µM, first compound 0.1 µM
# [33] = second compound 10 µM, first compound 0.316 µM
# [34] = second compound 10 µM, first compound 1 µM
# [35] = second compound 10 µM, first compound 3.16 µM
# [36] = second compound 10 µM, first compound 10 µM
# 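Further: spheroids exposed to compounds for one week before readout.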
# 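Wherever viability, T/C is given: percent viability relative to vehicle DMSO wells taken as 100%.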
structure (smiles),measurement,setting,value
CC1COCCN1c1cc(-c2ccnn2C)c2ccnc(-c3ccn[nH]3)c2n1 (stereo unspecified) + CN(C)c1ccc(Nc2c3ccc(NC(=O)CCN4CCCC4)cc3nc3cc(NC(=O)CCN4CCCC4)ccc23)cc1,IC50,second compound 0.0316 µM,> 10000 nM
same,IC50,second compound 0.1 µM,> 10000 nM
same,IC50,second compound 0.316 µM,> 10000 nM
same,IC50,second compound 1 µM,> 10000 nM
same,IC50,second compound 3.16 µM,> 10000 nM
same,IC50,second compound 10 µM,2950 nM
same,"viability, T/C",[1],98.3%
same,"viability, T/C",[2],80.7%
same,"viability, T/C",[3],78%
same,"viability, T/C",[4],60.8%
same,"viability, T/C",[5],56.2%
same,"viability, T/C",[6],62.5%
same,"viability, T/C",[7],96.1%
same,"viability, T/C",[8],82.5%
same,"viability, T/C",[9],73.5%
same,"viability, T/C",[10],58.3%
same,"viability, T/C",[11],54.3%
same,"viability, T/C",[12],69.7%
same,"viability, T/C",[13],90.8%
same,"viability, T/C",[14],80.8%
same,"viability, T/C",[15],74.7%
same,"viability, T/C",[16],59.4%
same,"viability, T/C",[17],58.6%
same,"viability, T/C",[18],63.1%
same,"viability, T/C",[19],93.5%
same,"viability, T/C",[20],73.4%
same,"viability, T/C",[21],73.8%
same,"viability, T/C",[22],55.9%
same,"viability, T/C",[23],58.4%
same,"viability, T/C",[24],54.3%
same,"viability, T/C",[25],85.9%
same,"viability, T/C",[26],71.8%
same,"viability, T/C",[27],66.1%
same,"viability, T/C",[28],53.1%
same,"viability, T/C",[29],58.9%
same,"viability, T/C",[30],52.4%
same,"viability, T/C",[31],75.8%
same,"viability, T/C",[32],70.8%
same,"viability, T/C",[33],61.9%
same,"viability, T/C",[34],55.2%
same,"viability, T/C",[35],49.6%
same,"viability, T/C",[36],44.6%
CC(C)(O)C1CCC(Nc2ccc3ncc(-c4cccc(C(F)(F)F)c4)n3n2)CC1 (stereo unspecified) + Cc1[nH]c2ccc(F)cc2c1-c1nc2c3cccnc3c3ncccc3c2[nH]1,IC50,second compound 0.0316 µM,761 nM
same,IC50,second compound 0.1 µM,725 nM
same,IC50,second compound 0.316 µM,673 nM
same,IC50,second compound 1 µM,682 nM
same,IC50,second compound 3.16 µM,657 nM
same,IC50,second compound 10 µM,707 nM
same,"viability, T/C",[1],107%
same,"viability, T/C",[2],95.8%
same,"viability, T/C",[3],96.4%
same,"viability, T/C",[4],35.7%
same,"viability, T/C",[5],2.35%
same,"viability, T/C",[6],2.26%
same,"viability, T/C",[7],104%
same,"viability, T/C",[8],97.8%
same,"viability, T/C",[9],93%
same,"viability, T/C",[10],33.5%
same,"viability, T/C",[11],2.03%
same,"viability, T/C",[12],1.93%
same,"viability, T/C",[13],104%
same,"viability, T/C",[14],92%
same,"viability, T/C",[15],87.3%
same,"viability, T/C",[16],30.8%
same,"viability, T/C",[17],2.68%
same,"viability, T/C",[18],2.19%
same,"viability, T/C",[19],93.4%
same,"viability, T/C",[20],87.3%
same,"viability, T/C",[21],87.5%
same,"viability, T/C",[22],31.4%
same,"viability, T/C",[23],2.43%
same,"viability, T/C",[24],1.82%
same,"viability, T/C",[25],87.3%
same,"viability, T/C",[26],85.1%
same,"viability, T/C",[27],79.5%
same,"viability, T/C",[28],33.1%
same,"viability, T/C",[29],3.45%
same,"viability, T/C",[30],2.02%
same,"viability, T/C",[31],86.6%
same,"viability, T/C",[32],84.6%
same,"viability, T/C",[33],81.7%
same,"viability, T/C",[34],36.4%
same,"viability, T/C",[35],3.99%
same,"viability, T/C",[36],2.51%
COc1cccc2c1C(=O)c1c(O)c3c(c(O)c1C2=O)CC(O)(C(=O)CO)CC3OC1CC(N)C(O)C(C)O1 (stereo unspecified) + Cc1[nH]c2ccc(F)cc2c1-c1nc2c3cccnc3c3ncccc3c2[nH]1,IC50,second compound 0.0316 µM,444 nM
same,IC50,second compound 0.1 µM,721 nM
same,IC50,second compound 0.316 µM,965 nM
same,IC50,second compound 1 µM,839 nM
same,IC50,second compound 3.16 µM,572 nM
same,IC50,second compound 10 µM,505 nM
same,"viability, T/C",[1],90.5%
same,"viability, T/C",[2],66%
same,"viability, T/C",[3],59.2%
same,"viability, T/C",[4],41.6%
same,"viability, T/C",[5],5.07%
same,"viability, T/C",[6],0.26%
same,"viability, T/C",[7],81.5%
same,"viability, T/C",[8],63.5%
same,"viability, T/C",[9],59.7%
same,"viability, T/C",[10],49.2%
same,"viability, T/C",[11],7.76%
same,"viability, T/C",[12],0.17%
same,"viability, T/C",[13],74.2%
same,"viability, T/C",[14],66.8%
same,"viability, T/C",[15],56.4%
same,"viability, T/C",[16],51%
same,"viability, T/C",[17],5.84%
same,"viability, T/C",[18],0.2%
same,"viability, T/C",[19],79.9%
same,"viability, T/C",[20],62.5%
same,"viability, T/C",[21],61.9%
same,"viability, T/C",[22],48.6%
same,"viability, T/C",[23],5.97%
same,"viability, T/C",[24],0.21%
same,"viability, T/C",[25],79.4%
same,"viability, T/C",[26],65.7%
same,"viability, T/C",[27],59.4%
same,"viability, T/C",[28],43.6%
same,"viability, T/C",[29],6.19%
same,"viability, T/C",[30],0.26%
same,"viability, T/C",[31],93%
same,"viability, T/C",[32],74.5%
same,"viability, T/C",[33],58.5%
same,"viability, T/C",[34],43.7%
same,"viability, T/C",[35],5.74%
same,"viability, T/C",[36],0.29%
